Data from ChEMBL document CHEMBL1201862, “PubChem BioAssay data set” (2004).
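96-well plates; 48 h exposure; 5 concentrations. Endpoints by linear interpolation between flanking doses. Not reached: highest tested concentration assigned. The concentration for 50% growth inhibition is given as GI50.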 Activity calls are given as the source filed them. No stated cut-off is given here; in the data, active = GI50 up to about 1.1 µM and inactive = higher.

How the values were obtained:
Test in all cases: DTP human tumour cell line panel, 48 h
SW-620 = system: SW-620
IGROV-1 = system: IGROV-1
SR = system: SR
A549 = system: A549
LOX IMVI = system: LOX IMVI
UACC-62 = system: UACC-62
SNB-19 = system: SNB-19
SK-OV-3 = system: SK-OV-3
Malme-3M = system: Malme-3M
SK-MEL-2 = system: SK-MEL-2
HOP-92 = system: HOP-92
OVCAR-3 = system: OVCAR-3
NCI-H23 = system: NCI-H23

Structure (SMILES) | GI50 (SW-620) | GI50 (IGROV-1) | GI50 (SR) | GI50 (A549) | GI50 (LOX IMVI) | GI50 (UACC-62) | GI50 (SNB-19) | GI50 (SK-OV-3) | GI50 (Malme-3M) | GI50 (SK-MEL-2) | GI50 (HOP-92) | GI50 (OVCAR-3) | GI50 (NCI-H23)
O=C(/C=C\c1cccc2ccccc12)c1cccc2ccccc12 | 3.37 µM (inactive) | 8.17 µM (inactive) | 3.25 µM (inactive) | 13.1 µM (inactive) | 5.61 µM (inactive) | 9.04 µM (inactive) | 10.6 µM (inactive) | > 10 µM (inactive) | 15.9 µM (inactive) | 18.6 µM (inactive) | > 10 µM (inactive) | 7.91 µM (inactive) | 5.93 µM (inactive)
N#Cc1c2c(c(N=P(c3ccccc3)(c3ccccc3)c3ccccc3)n3c1nc1ccccc13)CCCC2 | 20.8 µM (inactive) | 29.2 µM (inactive) |  | 21.3 µM (inactive) | 16.7 µM (inactive) | 12.1 µM (inactive) | 11.9 µM (inactive) | 40.9 µM (inactive) | 36 µM (inactive) | 16.6 µM (inactive) |  | 15.3 µM (inactive) | 
CCN(CC)CCNC(=O)c1nn(C)c(=S)[nH]c1=S | > 100 µM (inactive) | > 100 µM (inactive) | > 100 µM (inactive) | > 100 µM (inactive) | > 100 µM (inactive) | > 100 µM (inactive) | > 100 µM (inactive) | > 100 µM (inactive) | > 100 µM (inactive) | > 100 µM (inactive) | > 100 µM (inactive) | > 100 µM (inactive) | > 100 µM (inactive)
COC(=O)N/N=C(\Cc1ccccc1)CN(C)C | > 100 µM (inactive) | > 100 µM (inactive) |  | > 100 µM (inactive) | > 100 µM (inactive) | > 100 µM (inactive) |  | > 100 µM (inactive) | > 100 µM (inactive) | > 100 µM (inactive) | > 100 µM (inactive) | > 100 µM (inactive) | > 100 µM (inactive)
O=c1cc2n(c(=O)[nH]1)C1OC(C(O)C1O)[C@@H]2CCO (stereo not given in full) | > 100 µM (inactive) | > 100 µM (inactive) | > 100 µM (inactive) | > 100 µM (inactive) | > 100 µM (inactive) | > 100 µM (inactive) | > 100 µM (inactive) | > 100 µM (inactive) | > 100 µM (inactive) | > 100 µM (inactive) | > 100 µM (inactive) |  | > 100 µM (inactive)
CCSC1=C(C)N(/C=N/C(C)(C)C)CC1 | 20.5 µM (inactive) | > 100 µM (inactive) | > 100 µM (inactive) | > 100 µM (inactive) | 89.1 µM (inactive) | > 100 µM (inactive) | > 100 µM (inactive) | > 100 µM (inactive) | > 100 µM (inactive) | > 100 µM (inactive) | > 100 µM (inactive) | > 100 µM (inactive) | > 100 µM (inactive)
CC(C)(C)CC(C)(C)c1cc2c(O)c(c1)Cc1cc(C(C)(C)CC(C)(C)C)cc(c1O)Cc1cc(C(C)(C)CC(C)(C)C)cc(c1O)Cc1cc(C(C)(C)CC(C)(C)C)cc(c1O)Cc1cc(C(C)(C)CC(C)(C)C)cc(c1O)Cc1cc(C(C)(C)CC(C)(C)C)cc(c1O)C2 | > 100 µM (inactive) | > 100 µM (inactive) |  | > 100 µM (inactive) |  | > 100 µM (inactive) | > 100 µM (inactive) |  | > 100 µM (inactive) | > 100 µM (inactive) | > 100 µM (inactive) | > 100 µM (inactive) | > 100 µM (inactive)
C[C@]12CC[C@H](O)CC1=CC[C@@H]1C2CC[C@]2(C)Nc3c(cnn3-c3ccccc3)CC12 (stereo not given in full) | 2.6 µM (inactive) | 7.05 µM (inactive) |  | 3.43 µM (inactive) |  | 4.14 µM (inactive) |  | 4.07 µM (inactive) | 4.35 µM (inactive) | 9.73 µM (inactive) |  | 5.9 µM (inactive) | 3.88 µM (inactive)
Cc1ccccc1C(CCCO)C(=O)O (stereo not given) | > 100 µM (inactive) | > 100 µM (inactive) |  | > 100 µM (inactive) | > 100 µM (inactive) | > 100 µM (inactive) | > 100 µM (inactive) | > 100 µM (inactive) | > 100 µM (inactive) | > 100 µM (inactive) | > 100 µM (inactive) | > 100 µM (inactive) | > 100 µM (inactive)
CN(C)CC/C(=N\Nc1ccc([N+](=O)[O-])cc1)c1ccccc1 | 13.4 µM (inactive) | 11 µM (inactive) | 3.5 µM (inactive) | 13.4 µM (inactive) | 5.25 µM (inactive) | 12.9 µM (inactive) | 15 µM (inactive) | 16.1 µM (inactive) | 19.4 µM (inactive) | 12.9 µM (inactive) |  | 16.3 µM (inactive) | 13.3 µM (inactive)
O=C(Nc1ccccc1)N1C(c2ccccc2)=N[C@@H](c2ccccc2)[C@@H]1c1ccccc1 | 18.8 µM (inactive) | 22.4 µM (inactive) | 14.8 µM (inactive) | 21.2 µM (inactive) | 14.6 µM (inactive) | 19.9 µM (inactive) | 31.6 µM (inactive) |  | 17.5 µM (inactive) |  | 18.3 µM (inactive) | 22.9 µM (inactive) | 23.7 µM (inactive)
CCOc1ccccc1NC(=O)C1=C(C)NC(C)=C(C(=O)Nc2ccccc2OCC)C1c1ccc(NC(C)=O)cc1 | 35.6 µM (inactive) | 47.4 µM (inactive) |  | 46.6 µM (inactive) | 38.9 µM (inactive) |  | 96.2 µM (inactive) | 11.5 µM (inactive) | 33.7 µM (inactive) | 17.9 µM (inactive) | 9.62 µM (inactive) | 45.3 µM (inactive) | 31 µM (inactive)
COC(=O)C1CC2(CC3=C1CCCC3)OCCO2 (stereo not given) | > 100 µM (inactive) | > 100 µM (inactive) |  | > 100 µM (inactive) | > 100 µM (inactive) | > 100 µM (inactive) | > 100 µM (inactive) | > 100 µM (inactive) | > 100 µM (inactive) | > 100 µM (inactive) | > 100 µM (inactive) | > 100 µM (inactive) | > 100 µM (inactive)
On1c(-c2ccccc2)c(-c2c(-c3ccccc3)n(O)c3ccccc23)c2ccccc21 |  |  |  | 32.4 µM (inactive) | 26.2 µM (inactive) | 55.3 µM (inactive) | 67.5 µM (inactive) | 29.8 µM (inactive) | 32.3 µM (inactive) | 25.8 µM (inactive) |  | 38 µM (inactive) | 27.3 µM (inactive)
CCOC(=O)c1ccc(N2C(=O)/C(=C\OC)c3ccccc3C2=O)cc1 | 33.8 µM (inactive) | 25.2 µM (inactive) | 30.3 µM (inactive) | 43.3 µM (inactive) |  | 23.2 µM (inactive) | 34 µM (inactive) | 5.22 µM (inactive) | 18.7 µM (inactive) | 23 µM (inactive) |  | 36.6 µM (inactive) | 37.2 µM (inactive)
CC[n+]1c(/C=C/c2ccc(N(CCCl)CCCl)cc2)ccc2cc(I)ccc21 | 0.916 µM (active) | 0.587 µM (active) | 0.659 µM (active) | 3.04 µM (inactive) | 0.766 µM (active) | 0.507 µM (active) | 0.843 µM (active) | 1.31 µM (inactive) | 0.6 µM (active) | 0.372 µM (active) | 0.379 µM (active) | 0.553 µM (active) | 1.23 µM (inactive)
COC1=C(OC)C(=O)c2cc(SC)c(=O)c(SC)cc2C1=O | 33.5 µM (inactive) | 33.1 µM (inactive) | 4.33 µM (inactive) | 22.6 µM (inactive) | 4.48 µM (inactive) | 2.12 µM (inactive) | 22.6 µM (inactive) | 36.4 µM (inactive) |  | 3.85 µM (inactive) | 17.7 µM (inactive) | 8.93 µM (inactive) | 5.75 µM (inactive)
CCCc1c(C(=O)OCC)[nH]c(-c2ccc(-c3[nH]c(C(=O)OCC)c(CCC)c3C(=O)OCC)s2)c1C(=O)OCC | > 100 µM (inactive) | 58.2 µM (inactive) | 7.26 µM (inactive) | 52.4 µM (inactive) | 18.1 µM (inactive) | 32.1 µM (inactive) | 78.3 µM (inactive) | 27.1 µM (inactive) | 39.5 µM (inactive) | 15.7 µM (inactive) | 25.2 µM (inactive) | 31.6 µM (inactive) | 28.2 µM (inactive)
O=C1Oc2cc3c(c4cccc1c24)OCN(c1ccc(Cl)cc1)C3 | 7.4 µM (inactive) | > 100 µM (inactive) | 8.79 µM (inactive) | 10.2 µM (inactive) | 0.176 µM (active) | 4.79 µM (inactive) | 47.8 µM (inactive) | > 100 µM (inactive) | 26.4 µM (inactive) | 1.83 µM (inactive) | 20.5 µM (inactive) | 12 µM (inactive) | 18.8 µM (inactive)
O[C@]12c3ccccc3C1CCCCC2N1CCOCC1 (stereo not given in full) | > 100 µM (inactive) |  | > 100 µM (inactive) | > 100 µM (inactive) | > 100 µM (inactive) | > 100 µM (inactive) | > 100 µM (inactive) | > 100 µM (inactive) | > 100 µM (inactive) | > 100 µM (inactive) |  |  | > 100 µM (inactive)
CCCCCC/C=C/CCCCCCCc1cccc(O)c1C(=O)O | 62.4 µM (inactive) | 44.9 µM (inactive) | > 100 µM (inactive) | 50.4 µM (inactive) | 70.6 µM (inactive) | 36.4 µM (inactive) | 34.7 µM (inactive) | 36.3 µM (inactive) | > 100 µM (inactive) | > 100 µM (inactive) |  | 42.3 µM (inactive) | 38.5 µM (inactive)
O=P(Oc1ccc2ccccc2c1)(N1CC1)N1CC1 | > 100 µM (inactive) | 83.4 µM (inactive) | 3.13 µM (inactive) | 5.62 µM (inactive) | 28.8 µM (inactive) | 2.88 µM (inactive) | 26.9 µM (inactive) | 46.3 µM (inactive) | 10.7 µM (inactive) | 68.1 µM (inactive) | 24.5 µM (inactive) | 65.8 µM (inactive) | 4.43 µM (inactive)
